Source: patent publication US20220153750A1, “SALTS OF 5,6-DIHYDRO-4H-THIENO[2,3-C]PYRROL-4-ONE COMPOUND AS ERK INHIBITORS” (Eli Lilly and Company, priority 2019, published 2022)
Converted amounts (≈) assume the structure as drawn.

Columns and labels:
Format in all cases: physicochemical
[1] = Hygroscopicity (moisture sorption analysis at 25° C.); settings: for Hygroscopicity, weight increase: 25° C.
Description: The purpose of this assay is to determine the hygroscopicity of the solid forms of the present invention under conditions normally encountered in manufacturing and storage of drug products. Moisture analysis is performed at 25° C. using a TA instrument. The following experimental conditions are used: sample size ˜3-20 mg, dry sample at 0% RH until <0.0 weight change over 10 minutes, 5-95% RH adsorption/desorption range, and 5% RH step interval. The minimum equilibration criterion is <0.01% weight change for 5 minutes.

[2] = Equilibrium solubility of crystalline solid forms in simulated fluids (SGF, FaSSIF, FedSSIF); settings: for solubility thermodynamic at 24 h: thermodynamic from solid, room temperature
Description: The purpose of this assay is to measure the solubility of certain solid forms of the present invention in comparison to 6,6-dimethyl-2-{2-[(1-methyl-1H-pyrazol-5-yl)amino]pyrimidin-4-yl}-5-[2-(morpholin-4-yl)ethyl]-5,6-dihydro-4H-thieno[2,3-c]pyrrol-4-one (free base). pKa Determination is performed using a UV-metric method. The sample is titrated in a fast-UV triple titration between pH 2-12 at a concentration of 31-19 μM under aqueous condition. Subsequently, the sample is titrated in three UV-metric titrations from pH 1.5-10 at a concentration of 30-27 μM with no precipitation and the observed pKa averages are reported.
To determine the solubility of the three different crystal forms, a single aliquot of the test media (2 mL, see table 4) is added to an accurately weighed sample. Samples are mixed at room temperature for a period of 24 hours. If a solution is observed, more crystalline material is added and the suspension is slurried for at least 2 hours, after which, an aliquot is withdrawn, filtered through a 0.45 μm PTFE filter and characterized by HPLC using the following HPLC conditions: Column Waters)(Bridge Phenyl, 4.6×100 mm, 3.5 μm, mobile phase A is 0.% NH4OH in water, mobile phase B is MeOH, diluent is 75% ACN and 25% water, gradient is 50% A at time 0, 25% A at time 10-13 minutes, and 50% A at time 13.1 to 18 minutes with a flow rate of 0.9 mL/minute, a column temperature of 35° C., UV at 225 nM, an injection volume of 5 and autosampler at ambient temperature. The remaining solids are air dried prior to analysis by XRPD. One replicate from each sample has triplicate HPLC analysis. pH Measurement of the solution is performed using calibrated scientific pH equipment. […] The equilibrium solubility in simulated intestinal fluids of the free base (assumed crystalline) compared to the crystalline methanesulfonic acid dihydrate salt (Example 2) and 4-methylbenzenesulfonic acid salt (Example 3), (assumed crystalline) are shown in Table 4.

[3] = Compaction properties / tabletability (Instron compaction, tensile strength); settings: for Tensile: 300 mg compact
Description: The purpose of this study is to determine the compaction properties of certain solid forms of the present invention. The experimental compaction testing is evaluated on Instron Universal Testing System equipped with a 50 kN load cell using Natoli 10 mm flat round punches and die for material compression. The profiles are generated at 5, 10, and 15 kN with a target tablet weight of 300 mg for each compact. The three compacts are made at each pressure set point while the Instron is traveling at 50 mm/minute. The compacts final weight is measured on a balance. The tablet's diameter and thickness is measured using Mitutoyo Thickness Gauge and hardness testing is completed on a Vankel Hardness tester using axially breakage.

[4] = Formulation assessment: API powder flowability, compressibility, sticking; settings: compared to the free base
Description: (§1) The purpose of this study is to evaluate the properties of certain solid forms of the present invention with respect to the suitability for manufacturing high drug load tablets. The API flowability is measured using a United States Pharmacopeia method for bulk/tapped density and a powder rheometer. The formula contains ˜64.6 wt % Example 2, 26.4 wt % microcrystalline cellulose (diluent/binder), 5 wt % croscarmellose sodium (disintegrant), 2 wt % sodium stearyl fumarate (lubricant), and 2 wt % silicone dioxide (glidant). The components are combined and tumble blended in a single step at a 40 g scale. The resulting blend is then tested using the same bulk/tapped density and powder rheometry tests. The blend is compressed on a single-station, instrumented tablet press. The accelerated studies are comprised of prototype tablets of methanesulfonic acid dihydrate (Example 2) at a 50% free base equivalence drug load. The tablets are prepared and stored in open-dish containers to evaluate stability. Samples are stored at 40° C./11% RH, 40° C./75% RH, 50° C./22% RH, and 50° C./50% RH. At designated time points the samples are characterized by XRPD for physical form and by HPLC using the following conditions: Column Zorbax Bonus-RP, 3.5-micron, 4.6×75 mm, mobile phase A is 0.1% TFA in water, mobile phase B is 0.1% TFA in ACN, gradient is 95% A at time 0 to 23% A at 9.5 minutes-12.1 minutes, 5% A at time 13-16 minutes, and 95% A at time 16.1 to 20 minutes with a flow rate of 1.5 mL/minute, a column temperature of 30° C., UV at 227 nM, an injection volume of 5 and autosampler at ambient temperature. The drug product formulation stress study under accelerated open dish conditions for methanesulfonic acid dihydrate (Example 2) is depicted in Table 5.

[5] = Accelerated open-dish physical stability of prototype tablet (XRPD, HPLC)
Description: as §1

| SMILES | Hygroscopicity, weight increase ([1]; 20% RH) | Hygroscopicity, weight increase ([1]; 60% RH) | pH of the solution in solubility test ([2]; FaSSIF) | pH of the solution in solubility test ([2]; FedSSIF) | pH of the solution in solubility test ([2]; SGF) | solubility thermodynamic at 24 h ([2]; fessif, FedSSIF) | solubility thermodynamic at 24 h ([2]; simulated gastric fluid, SGF) | solubility thermodynamic at 24 h ([2]; FaSSIF) | Tensile ([3]; Pressure 64 MPa) | Tensile ([3]; Pressure 127 MPa) | Tensile ([3]; Pressure 191 MPa) | also measured |
| --- | --- | --- | --- | --- | --- | --- | --- | --- | --- | --- | --- | --- |
| CS(=O)(=O)O.Cn1nccc1Nc1nccc(-c2cc3c(s2)C(C)(C)N(CCN2CCOCC2)C3=O)n1 [Example 1, 6,6-Dimethyl-2-{2-[(1-methyl-1H-pyrazol-5-yl)amino]pyrimidin-4-yl}-5-[2-(morpholin-4-yl)ethyl]-5,6-dihydro-4H-thieno[2,3-c]pyrrol-4-one; methanesulfonic acid] | <0.1 wt % | <0.1 wt % | – | – | – | – | – | – | – | – | – | Hygroscopicity, weight increase ([1]; 90% RH): ~4 wt % |
| Cc1ccc(S(=O)(=O)O)cc1.Cn1nccc1Nc1nccc(-c2cc3c(s2)C(C)(C)N(CCN2CCOCC2)C3=O)n1 [Example 3, 6,6-Dimethyl-2-{2-[(1-methyl-1H-pyrazol-5-yl)amino]pyrimidin-4-yl}-5-[2-(morpholin-4-yl)ethyl]-5,6-dihydro-4H-thieno[2,3-c]pyrrol-4-one; 4-methylbenzenesulfonic acid] | <0.1 wt % | ~0.2 wt % | 5.44 | 5.04 | 2.46 | 13500 µg/mL | 7080 µg/mL | 12200 µg/mL | – | – | – | solubility compared to the free base ([2]; FaSSIF and FedSSIF): higher solubility; hygroscopicity profile for drug product manufacturing processes [1]: preferred hygroscopicity profiles; Hygroscopicity, weight increase ([1]; 90% RH): ~0.5 wt. % increase wt % |
| CS(=O)(=O)O.Cn1nccc1Nc1nccc(-c2cc3c(s2)C(C)(C)N(CCN2CCOCC2)C3=O)n1 [Example 2, 6,6-Dimethyl-2-{2-[(1-methyl-1H-pyrazol-5-yl)amino]pyrimidin-4-yl}-5-[2-(morpholin-4-yl)ethyl]-5,6-dihydro-4H-thieno[2,3-c]pyrrol-4-one; methanesulfonic acid dihydrate] | – | – | 5.33 | 5.09 | 2.62 | > 20300 µg/mL | > 9700 µg/mL | > 19000 µg/mL | 1.2034 MPa | 2.1532 MPa | 2.4082 MPa | physical stability with respect to solution mediated form conversion ([2]; FaSSIF and FedSSIF): physically stable; solubility compared to the free base ([2]; FaSSIF and FedSSIF): higher solubility; hygroscopicity profile for drug product manufacturing processes [1]: preferred hygroscopicity profiles; Hygroscopicity, weight increase ([1]; 90% RH, dihydrate): <0.1 wt % increase; compaction properties compared with excipients ([3]; versus mannitol SD200 and Lactose Anhydrous): in range with excipients; compressibility [4]: improved; powder flowability [4]: improved; sticking to tableting tools [4]: reduced sticking; Physical stability in prototype tablet ([5]; 40° C./11% RH, 7 days): Stable; Physical stability in prototype tablet ([5]; 40° C./11% RH, 14 days): Stable; Physical stability in prototype tablet ([5]; 40° C./75% RH, 7 days): Stable; Physical stability in prototype tablet ([5]; 40° C./75% RH, 14 days): Stable; Physical stability in prototype tablet ([5]; 40° C./75% RH, 30 days): Stable; Physical stability in prototype tablet ([5]; 50° C./22% RH, 7 days): Stable; Physical stability in prototype tablet ([5]; 50° C./22% RH, 14 days): Stable; Physical stability in prototype tablet ([5]; 50° C./22% RH, 30 days): Stable; Physical stability in prototype tablet ([5]; 50° C./50% RH, 7 days): Stable; Physical stability in prototype tablet ([5]; 50° C./50% RH, 14 days): Stable; Physical stability in prototype tablet ([5]; 50° C./50% RH, 30 days): Stable |
| Cn1nccc1Nc1nccc(-c2cc3c(s2)C(C)(C)N(CCN2CCOCC2)C3=O)n1 [Free base, 6,6-Dimethyl-2-{2-[(1-methyl-1H-pyrazol-5-yl)amino]pyrimidin-4-yl}-5-[2-(morpholin-4-yl)ethyl]-5,6-dihydro-4H-thieno[2,3-c]pyrrol-4-one, reference compound] | – | – | 6.70 | 5.36 | 5.05 | 5650 µg/mL (≈ 12.5 mM) | 3700 µg/mL (≈ 8.16 mM) | 130 µg/mL (≈ 0.287 mM) | 0.5415 MPa | 1.0491 MPa | 1.6394 MPa | – |
| OC[C@@H](O)[C@@H](O)[C@H](O)[C@H](O)CO [Mannitol SD200] | – | – | – | – | – | – | – | – | 0.4873 MPa | 1.1966 MPa | 2.1411 MPa | – |
| Cl.Cn1nccc1Nc1nccc(-c2cc3c(s2)C(C)(C)N(CCN2CCOCC2)C3=O)n1 [Example 4, 6,6-Dimethyl-2-{2-[(1-methyl-1H-pyrazol-5-yl)amino]pyrimidin-4-yl}-5-[2-(morpholin-4-yl)ethyl]-5,6-dihydro-4H-thieno[2,3-c]pyrrol-4-one; hydrochloride, reference compound] | ~0.4 wt. % wt % | ~6 wt % | – | – | – | – | – | – | – | – | – | – |
| OC[C@H]1O[C@@H](O[C@H]2[C@H](O)[C@@H](O)C(O)O[C@@H]2CO)[C@H](O)[C@@H](O)[C@H]1O (some centres unmarked) [Lactose Anhydrous] | – | – | – | – | – | – | – | – | 0.9687 MPa | – | 3.1671 MPa | Tensile ([3]; Pressure 128 MPa): 1.9119 MPa |
